Patent US9695154B2, “Heteroaryl inhibitors of sumo activating enzyme” (MILLENNIUM PHARMACEUTICALS, INC., priority 2013, dated 2017)

Molecular target: T1, recombinant human SAE enzyme (Homo sapiens, UniProt Q9UBT2)
T1 sequence (Q9UBT2 1-640): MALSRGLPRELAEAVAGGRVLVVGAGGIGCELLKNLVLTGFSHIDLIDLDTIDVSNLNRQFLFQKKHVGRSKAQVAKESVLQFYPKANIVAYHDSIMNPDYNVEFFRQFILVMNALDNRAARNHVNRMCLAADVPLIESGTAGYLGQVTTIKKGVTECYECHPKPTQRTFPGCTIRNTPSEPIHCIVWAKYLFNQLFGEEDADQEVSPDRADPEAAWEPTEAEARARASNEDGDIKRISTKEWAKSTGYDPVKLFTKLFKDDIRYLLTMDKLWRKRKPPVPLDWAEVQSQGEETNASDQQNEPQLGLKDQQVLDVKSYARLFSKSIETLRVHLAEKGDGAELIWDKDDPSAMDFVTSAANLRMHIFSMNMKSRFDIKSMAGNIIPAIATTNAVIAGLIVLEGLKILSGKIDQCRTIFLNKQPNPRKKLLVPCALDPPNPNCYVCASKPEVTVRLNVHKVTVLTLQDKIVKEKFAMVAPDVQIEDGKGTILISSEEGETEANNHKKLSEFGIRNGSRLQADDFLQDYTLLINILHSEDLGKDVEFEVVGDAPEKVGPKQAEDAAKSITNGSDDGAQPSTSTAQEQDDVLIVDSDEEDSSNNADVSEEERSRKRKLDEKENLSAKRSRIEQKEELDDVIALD
T1 sequence (Q9UBE0 1-346 partner): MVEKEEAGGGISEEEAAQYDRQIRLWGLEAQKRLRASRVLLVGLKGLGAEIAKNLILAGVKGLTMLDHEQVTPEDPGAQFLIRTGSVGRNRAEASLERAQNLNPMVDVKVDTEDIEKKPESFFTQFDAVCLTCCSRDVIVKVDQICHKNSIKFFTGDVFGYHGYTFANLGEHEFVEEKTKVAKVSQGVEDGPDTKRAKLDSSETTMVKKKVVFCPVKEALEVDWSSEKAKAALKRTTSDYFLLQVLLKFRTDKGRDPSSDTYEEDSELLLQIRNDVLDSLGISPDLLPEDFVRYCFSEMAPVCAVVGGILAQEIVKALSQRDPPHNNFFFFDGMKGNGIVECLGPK
Experiment: SAE HTRF Enzyme Assay
Assay type: biochemical
Conditions: for IC50: class symbols A-C; for inhibition at 0.111 µM: compound concentration 0.111 μM, read-out: Percent Inhibition
Outline: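 Measured as FRET after a 2 h antibody step: SAE (0.11 nM) thioester transfer of Sumo-Flag to Ubc9-GST, 0.5 μM ATP, 24° C for 105 min, quenched with 20 mM EDTA. Output is IC50 or percent inhibition at a single concentration.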

C=CCn1ccc(C(=O)c2cncnc2N[C@@H]2C[C@H](COS(N)(=O)=O)[C@@H](O)C2)c1 [Compound I-291, [(1R,2S,4R)-4-({5-[(1-allyl-1H-pyrrol-3-yl)carbonyl]pyrimidin-4-yl}amino)-2-hydroxycyclopentyl]methyl sulfamate]
IC50: 10 to 100 nM | inhibition at 0.111 µM: 79%

NS(=O)(=O)OC[C@H]1C[C@@H](Nc2ncncc2C(=O)c2ccn(Cc3cccc(I)c3)n2)C[C@@H]1O [Compound I-292, {(1R,2S,4R)-2-Hydroxy-4-[(5-{[1-(3-iodobenzyl)-1H-pyrazol-3-yl]carbonyl}pyrimidin-4-yl)amino]cyclopentyl}methyl sulfamate]
IC50: < 10 nM | inhibition at 0.111 µM: 98%

Cc1cc(C(=O)c2cncnc2N[C@@H]2C[C@H](COS(N)(=O)=O)[C@@H](O)[C@@H]2F)nn1Cc1cccc(I)c1 [Compound I-294, {(1R,2R,3R,4R)-3-fluoro-2-hydroxy-4-[(5-{[1-(3-iodobenzyl)-5-methyl-1H-pyrazol-3-yl]carbonyl}pyrimidin-4-yl)amino]cyclopentyl}methyl sulfamate]
IC50: < 10 nM | inhibition at 0.111 µM: 100%

COc1cccc(Cn2ccc(C(=O)c3cncnc3N[C@@H]3C[C@H](COS(N)(=O)=O)[C@@H](O)C3)n2)n1 [Compound I-295, [(1R,2S,4R)-2-hydroxy-4-{[5-({1-[(6-methoxypyridin-2-yl)methyl]-1H-pyrazol-3-yl}carbonyl)pyrimidin-4-yl]amino}cyclopentyl]methyl sulfamate]
IC50: < 10 nM | inhibition at 0.111 µM: 96%

NS(=O)(=O)OC[C@H]1C[C@@H](Nc2ncncc2C(=O)c2ccn(Cc3ccc(Cl)o3)c2)[C@@H](F)[C@@H]1O [Compound I-296, [(1R,2R,3R,4R)-4-{[5-({1-[(5-chloro-2-furyl)methyl]-1H-pyrrol-3-yl}carbonyl)pyrimidin-4-yl]amino}-3-fluoro-2-hydroxycyclopentyl]methyl sulfamate]
IC50: < 10 nM | inhibition at 0.111 µM: 100%

Cc1cc(Cn2ccc(C(=O)c3cncnc3N[C@@H]3C[C@H](COS(N)(=O)=O)[C@@H](O)[C@@H]3F)c2)no1 [Compound I-297, [(1R,2R,3R,4R)-3-fluoro-2-hydroxy-4-{[5-({1-[(5-methylisoxazol-3-yl)methyl]-1H-pyrrol-3-yl}carbonyl)pyrimidin-4-yl]amino}cyclopentyl]methyl sulfamate]
IC50: < 10 nM | inhibition at 0.111 µM: 97%

Cc1cccc(Cn2ccc(C(=O)c3cncnc3N[C@@H]3C[C@H](COS(N)(=O)=O)[C@@H](O)C3)n2)n1 [Compound I-298, [(1R,2S,4R)-2-hydroxy-4-{[5-({1-[(6-methylpyridin-2-yl)methyl]-1H-pyrazol-3-yl}carbonyl)pyrimidin-4-yl]amino}cyclopentyl]methyl sulfamate]
IC50: < 10 nM | inhibition at 0.111 µM: 97%

NS(=O)(=O)OC[C@H]1C[C@@H](Nc2ncncc2C(=O)c2ccn(Cc3cncc(Br)c3)c2)C[C@@H]1O [Compound I-299, [(1R,2S,4R)-4-{[5-({1-[(5-Bromopyridin-3-yl)methyl]-1H-pyrrol-3-yl}carbonyl)pyrimidin-4-yl]amino}-2-hydroxycyclopentyl]methyl sulfamate]
IC50: < 10 nM | inhibition at 0.111 µM: 99%

NS(=O)(=O)OC[C@H]1C[C@@H](Nc2ncncc2C(=O)c2ccn(Cc3ccccc3)c2)C[C@@H]1O [Compound I-300, [(1R,2S,4R)-4-({5-[(1-Benzyl-1H-pyrrol-3-yl)carbonyl]pyrimidin-4-yl}amino)-2-hydroxycyclopentyl]methyl sulfamate]
IC50: < 10 nM | inhibition at 0.111 µM: 97%

NS(=O)(=O)OC[C@H]1C[C@@H](Nc2ncncc2C(=O)c2ccn(Cc3ccc(F)c(C4CC4)c3)n2)C[C@@H]1O [Compound I-301, {(1R,2S,4R)-4-[(5-{[1-(3-cyclopropyl-4-fluorobenzyl)-1H-pyrazol-3-yl]carbonyl}pyrimidin-4-yl)amino]-2-hydroxycyclopentyl}methyl sulfamate]
IC50: < 10 nM | inhibition at 0.111 µM: 97%

NS(=O)(=O)OC[C@H]1C[C@@H](Nc2ncncc2C(=O)c2ccn(Cc3cccc(OC(F)F)c3)n2)[C@@H](F)[C@@H]1O [Compound I-303, [(1R,2R,3R,4R)-4-{[5-({1-[3-(difluoromethoxy)benzyl]-1H-pyrazol-3-yl}carbonyl)pyrimidin-4-yl]amino}-3-fluoro-2-hydroxycyclopentyl]methyl sulfamate]
IC50: < 10 nM | inhibition at 0.111 µM: 99%

COCCn1ccc(C(=O)c2cncnc2N[C@@H]2C[C@H](COS(N)(=O)=O)[C@@H](O)C2)n1 [Compound I-305, {(1R,2S,4R)-2-hydroxy-4-[(5-{[1-(2-methoxyethyl)-1H-pyrazol-3-yl]carbonyl}pyrimidin-4-yl)amino]cyclopentyl}methyl sulfamate]
IC50: 100 to 1000 nM | inhibition at 0.111 µM: 32%

Cn1nc(Cn2ccc(C(=O)c3cncnc3N[C@@H]3C[C@H](COS(N)(=O)=O)[C@@H](O)C3)c2)cc1C(F)(F)F [Compound I-306, [(1R,2S,4R)-2-hydroxy-4-({5-[(1-{[1-methyl-5-(trifluoromethyl)-1H-pyrazol-3-yl]methyl) 1H pyrrol-3-yl)carbonyl]pyrmidin-4-yl}amino)cyclopentyl]methyl sulfamate]
IC50: < 10 nM | inhibition at 0.111 µM: 99%

NS(=O)(=O)OC[C@H]1C[C@@H](Nc2ncncc2C(=O)c2ccn(Cc3cc(Cl)ccc3Cl)n2)[C@@H](F)[C@@H]1O [Compound I-307, {(1R,2R,3R,4R)-4-[(5-{[1-(2,5-dichlorobenzyl)-1H-pyrazol-3-yl]carbonyl}pyrimidin-4-yl)amino]-3-fluoro-2-hydroxycyclopentyl}methyl sulfamate]
IC50: < 10 nM | inhibition at 0.111 µM: 98%

Cn1cc(C#CCn2ccc(C(=O)c3cncnc3N[C@@H]3C[C@H](COS(N)(=O)=O)[C@@H](O)C3)n2)cn1 [Compound I-308, [(1R,2S,4R)-2-hydroxy-4-{[5-({1-[3-(1-methyl-1H-pyrazol-4-yl)prop-2-yn-1-yl]-1H-pyrazol-3-yl}carbonyl)pyrimidin-4-yl]amino}cyclopentyl]methyl sulfamate]
IC50: 100 to 1000 nM | inhibition at 0.111 µM: 27%

Cc1cc(C(=O)c2cncnc2N[C@@H]2C[C@H](COS(N)(=O)=O)[C@@H](O)C2)nn1Cc1cccc(Br)c1 [Compound I-309, {(1R,2S,4R)-4-[(5-{[1-(3-Bromobenzyl)-5-methyl-1H-pyrazol-3-yl]carbonyl}pyrimidin-4-yl)amino]-2-hydroxycyclopentyl}methyl sulfamate]
IC50: < 10 nM | inhibition at 0.111 µM: 100%

NS(=O)(=O)OC[C@H]1C[C@@H](Nc2ncncc2C(=O)c2cc(Cl)n(Cc3cccc(I)c3)c2)[C@@H](F)[C@@H]1O [Compound I-310, {(1R,2R,3R,4R)-4-[(5-{[5-chloro-1-(3-iodobenzyl)-1H-pyrrol-3-yl]carbonyl}pyrimidin-4-yl)amino]-3-fluoro-2-hydroxycyclopentyl}methyl sulfamate]
IC50: < 10 nM | inhibition at 0.111 µM: 98%

NS(=O)(=O)OC[C@H]1C[C@@H](Nc2ncncc2C(=O)c2ccn(Cc3ccc(Cl)c(Cl)c3)n2)[C@@H](F)[C@@H]1O [Compound I-311, {(1R,2R,3R,4R)-4-[(5-{[1-(3,4-dichlorobenzyl)-1H-pyrazol-3-yl]carbonyl}pyrimidin-4-yl)amino]-3-fluoro-2-hydroxycyclopentyl}methyl sulfamate]
IC50: < 10 nM | inhibition at 0.111 µM: 98%

NS(=O)(=O)OC[C@H]1C[C@@H](Nc2ncncc2C(=O)c2ccn(Cc3cccc(Br)c3)c2)[C@@H](F)[C@@H]1O [Compound I-312, {(1R,2R,3R,4R)-4-[(5-{[1-(3-bromobenzyl)-1H-pyrrol-3-yl]carbonyl}pyrimidin-4-yl)amino]-3-fluoro-2-hydroxycyclopentyl}methyl sulfamate]
IC50: < 10 nM | inhibition at 0.111 µM: 99%

C=CC(=O)Nc1cccc(Cn2ccc(C(=O)c3cncnc3N[C@@H]3C[C@H](COS(N)(=O)=O)[C@@H](O)[C@H]3O)n2)c1 [Compound I-313, [(1R,2R,3S,4R)-4-{[5-({1-[3-(Acryloylamino)benzyl]-1H-pyrazol-3-yl}carbonyl)pyrimidin-4-yl]amino}-2,3-dihydroxycyclopentyl]methyl sulfamate]
IC50: < 10 nM | inhibition at 0.111 µM: 95%

NS(=O)(=O)OC[C@H]1C[C@@H](Nc2ncncc2C(=O)c2ccn(Cc3cc(F)c(F)cc3F)n2)[C@H](O)[C@@H]1O [Compound I-314, {(1R,2R,3S,4R)-2,3-dihydroxy-4-[(5-{[1-(2,4,5-trifluorobenzyl)-1H-pyrazol-3-yl]carbonyl}pyrimidin-4-yl)amino]cyclopentyl}methyl sulfamate]
IC50: < 10 nM | inhibition at 0.111 µM: 97%
